Measured values from ChEMBL document CHEMBL5528031, “Synthesis and antitumor activity of cyclopentane-fused anthraquinone derivatives” (Eur J Med Chem, 2024).
Converted amounts (≈) assume the structure as drawn. The source made the active and inactive calls. No cut-off for these calls is given here.

Experiments:
CAPAN-1 = assay: Antiproliferative activity against human CAPAN-1 cells assessed as inhibition of cell growth incubated for 72 hrs by MTT assay; type: functional, cell-based; details: CAPAN-1, 72 h
HCT-116 = assay: Antiproliferative activity against human HCT-116 cells assessed as inhibition of cell growth incubated for 72 hrs by MTT assay; type: functional, cell-based; details: HCT-116, 72 h
LN-229 = assay: Antiproliferative activity against human LN-229 cells assessed as inhibition of cell growth incubated for 72 hrs by MTT assay; type: functional, cell-based; details: LN-229, 72 h
NCI-H1975 = assay: Antiproliferative activity against human NCI-H1975 cells assessed as inhibition of cell growth incubated for 72 hrs by MTT assay; type: functional, cell-based; details: NCI-H1975, 72 h
Z-138 = assay: Antiproliferative activity against human Z138 cells assessed as inhibition of cell growth incubated for 72 hrs by MTT assay; type: functional, cell-based; details: Z-138, 72 h
[1] = Antiproliferative activity against human DND41 cells assessed as inhibition of cell growth incubated for 72 hrs by MTT assay; type: functional, cell-based; details: DND41, 72 h
HL-60 = assay: Antiproliferative activity against human HL-60 cells assessed as inhibition of cell growth incubated for 72 hrs by MTT assay; type: functional, cell-based; details: HL-60, 72 h
K562 = assay: Antiproliferative activity against human K562 cells assessed as inhibition of cell growth incubated for 72 hrs by MTT assay; type: functional, cell-based; details: K562, 72 h
[2] = Antiproliferative activity against multidrug resistant human K562/4 cells expressing P-gp assessed as inhibition of cell growth incubated for 72 hrs by MTT assay; type: functional, cell-based; details: K562/4, 72 h
[3] = Cytotoxicity against hFB-hTERT6 cells assessed as inhibition of cell growth incubated for 72 hrs by MTT assay; type: toxicity, cell-based; details: human
DNA = assay: Binding affinity to pBR322 plasmid DNA (unknown origin) assessed as DNA intercalation by measuring reduction in electrophoretic shift at 5 to 20 uM incubated for 30 mins by EtBr staining based agarose gel electrophoresis; type: nucleic-acid assay; details: dose 5-20 µM
[4] = target: T1, DNA topoisomerase 1 (Homo sapiens) (UniProt P11387); assay: Inhibition of topoisomerase 1 (unknown origin) assessed as reduction in unwinding of supercoiled pBR322 plasmid DNA by measuring reduction in electrophoretic mobility at 20 uM incubated for 30 mins by EtBr staining based agarose gel electrophoresis
T1 sequence (whole entry): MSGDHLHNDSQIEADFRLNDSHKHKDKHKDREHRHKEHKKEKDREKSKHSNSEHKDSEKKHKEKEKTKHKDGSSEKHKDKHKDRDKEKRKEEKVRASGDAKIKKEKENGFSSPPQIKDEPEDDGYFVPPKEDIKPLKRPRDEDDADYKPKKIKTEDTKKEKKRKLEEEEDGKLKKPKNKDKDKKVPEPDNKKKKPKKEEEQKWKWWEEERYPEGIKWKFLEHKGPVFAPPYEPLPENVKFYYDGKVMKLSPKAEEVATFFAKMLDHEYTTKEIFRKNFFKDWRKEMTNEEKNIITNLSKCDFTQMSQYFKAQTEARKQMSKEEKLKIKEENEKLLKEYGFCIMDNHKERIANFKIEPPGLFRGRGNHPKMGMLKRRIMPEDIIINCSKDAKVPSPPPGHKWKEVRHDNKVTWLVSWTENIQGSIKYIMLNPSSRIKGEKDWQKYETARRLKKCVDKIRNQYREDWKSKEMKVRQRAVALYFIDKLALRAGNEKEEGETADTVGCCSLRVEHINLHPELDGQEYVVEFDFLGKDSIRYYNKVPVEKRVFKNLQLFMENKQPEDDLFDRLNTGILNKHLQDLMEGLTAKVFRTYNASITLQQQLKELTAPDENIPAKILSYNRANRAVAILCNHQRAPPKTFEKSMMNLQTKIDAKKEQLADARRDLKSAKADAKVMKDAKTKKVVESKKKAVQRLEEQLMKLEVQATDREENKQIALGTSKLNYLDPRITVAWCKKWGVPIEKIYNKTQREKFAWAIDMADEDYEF

[5] = Solubility of compound in deionized water at pH 6; type: physicochemical
[6] = Octanol/water partition coefficient, logP of compound at pH 7.4 by HPLC analysis; type: physicochemical
Calf thymus DNA [7] = assay: Binding affinity to calf thymus DNA assessed as binding constant at 10 uM by fluorescence spectroscopy analysis; type: nucleic-acid assay; details: Bos taurus
Calf thymus DNA [8] = assay: Binding affinity to calf thymus DNA assessed as dissociation constant at 10 uM by fluorescence spectroscopy analysis; type: nucleic-acid assay, Bos taurus
[9] = Drug uptake in human HCT-116 cells assessed as increase in intracellular accumulation at 2 uM measured after 24 hrs by Hoechst 33342 staining based fluorescence confocal microscopic analysis; type: ADME, cell-based; details: hct-116, 24 h
[10] = Drug uptake in hFB-hTERT6 cells; type: ADME, cell-based; details: human
[11] = Drug uptake in human HCT-116 cells assessed as increase in intracellular accumulation at 2 uM measured after 24 hrs by flow cytometry analysis; type: ADME, cell-based; details: hct-116, 24 h

Compound | IC50 (HCT-116) | IC50 (NCI-H1975) | IC50 (HL-60) | IC50 (K562) | Activity (DNA) | inhibition [4] | solubility [5] | Kb (Calf thymus DNA [7]) | Drug uptake [9] | Drug uptake [10] | Drug uptake [11] | IC50 (CAPAN-1) | IC50 (LN-229) | IC50 (Z-138) | IC50 [1] | IC50 [2] | IC50 at 72 h [3] | logD [6] | Kd (Calf thymus DNA [8])
O=C1c2ccccc2C(=O)c2c(O)c3c(c(O)c21)CC(C(=O)NC1CCNCC1)C3 | 1 µM | 1.8 µM | 1.5 µM | 1.6 µM |  |  |  |  |  |  |  | 1.7 µM | 1.4 µM | 3.1 µM | 2 µM | 4.5 µM | 4.5 µM |  | 
N[C@@H]1CCN(C(=O)C2Cc3c(O)c4c(c(O)c3C2)C(=O)c2ccccc2C4=O)C1 | 1.1 µM | 1.2 µM | 2 µM | 2 µM |  |  |  |  |  |  |  | 1.1 µM | 2 µM | 2.5 µM | 2.3 µM | 2.1 µM | 4.7 µM |  | 
O=C1c2ccccc2C(=O)c2c(O)c3c(c(O)c21)CC(C(=O)N1CCC(N2CCCCC2)CC1)C3 | 3.1 µM | 3.1 µM | 2.4 µM | 2 µM |  |  |  |  |  |  |  | 1.5 µM | 2.8 µM | 2.5 µM | 1.7 µM | 4.6 µM | 4.5 µM |  | 
NC1CCCN(C(=O)C2Cc3c(O)c4c(c(O)c3C2)C(=O)c2ccccc2C4=O)C1 (stereo not drawn) | 3.2 µM | 4.6 µM | 1.9 µM | 1.7 µM |  |  |  |  |  |  |  | 1 µM | 3.5 µM | 2.2 µM | 1.5 µM | 1.2 µM | 4 µM |  | 
CC(=O)[C@]1(O)Cc2c(O)c3c(c(O)c2[C@@H](O[C@H]2C[C@H](N)[C@H](O)[C@H](C)O2)C1)C(=O)c1c(O)cccc1C3=O [CARUBICIN] |  |  |  |  |  |  |  |  |  |  |  |  |  |  |  |  |  | 0.95 | 
O=C1c2ccccc2C(=O)c2c(O)c3c(c(O)c21)CC(C(=O)NC1CCCNC1)C3 (stereo not drawn) | 3.2 µM | 4.6 µM | 1.9 µM | 1.7 µM |  |  |  |  |  |  |  | 1 µM | 3.5 µM | 2.2 µM | 1.5 µM | 3.2 µM | 4.2 µM |  | 
O=C1c2ccccc2C(=O)c2c(O)c3c(c(O)c21)CC(C(=O)NC1CNC1)C3 | 1.4 µM | 2.7 µM | 2.7 µM | 2.7 µM |  |  |  |  |  |  |  | 1.5 µM | 2.9 µM | 2.8 µM | 3.1 µM | 33 µM | 4.3 µM |  | 
O=C1c2ccccc2C(=O)c2c(O)c3c(c(O)c21)CC(C(=O)NC1CN2CCC1CC2)C3 (stereo not drawn) | 1.5 µM | 6.2 µM | 2.1 µM | 1.6 µM |  |  |  |  |  |  |  | 1.8 µM | 1.9 µM | 2.7 µM | 2.2 µM | 4.1 µM | 2.4 µM |  | 
O=C1c2ccccc2C(=O)c2c(O)c3c(c(O)c21)CC(C(=O)NCCOCCO)C3 | > 50 µM | > 50 µM | > 50 µM | > 50 µM | inactive |  |  | 0.011 10^6/M | Not Active | Not Active | Not Active | > 50 µM | > 50 µM | > 50 µM | > 50 µM | > 50 µM | > 50 µM |  | 90 µM
N[C@H]1CC[C@H](NC(=O)C2Cc3c(O)c4c(c(O)c3C2)C(=O)c2ccccc2C4=O)CC1 | 2.1 µM | 6.5 µM | 2.7 µM | 2 µM |  |  |  |  |  |  |  | 1.9 µM | 4.5 µM | 2.6 µM | 2.5 µM | 8.8 µM | 4.5 µM |  | 
NCCCNC(=O)C1Cc2c(O)c3c(c(O)c2C1)C(=O)c1ccccc1C3=O | 2.1 µM | 3.3 µM | 45 µM | 3.7 µM |  |  |  |  |  |  |  | 3.6 µM | 3.9 µM | > 50 µM | 43 µM | 7.8 µM | 6.5 µM |  | 
NCCN(CCN)C(=O)C1Cc2c(O)c3c(c(O)c2C1)C(=O)c1ccccc1C3=O | 1.3 µM | 1.8 µM | 2.3 µM | 1.9 µM |  |  |  |  |  |  |  | 1.6 µM | 1.6 µM | 2.5 µM | 2.4 µM | 18 µM | 2.3 µM |  | 

Second part, led by results:

IC50 (HCT-116) | IC50 (NCI-H1975) | IC50 (HL-60) | IC50 (K562) | Activity (DNA) | inhibition [4] | solubility [5] | Kb (Calf thymus DNA [7]) | Drug uptake [9] | Drug uptake [10] | Drug uptake [11] | Compound | IC50 (CAPAN-1) | IC50 (LN-229) | IC50 (Z-138) | IC50 [1] | IC50 [2] | IC50 at 72 h [3] | logD [6] | Kd (Calf thymus DNA [8])
1.4 µM | 1.8 µM | 3.7 µM | 2.1 µM |  |  |  |  |  |  |  | NCCNC(=O)C1Cc2c(O)c3c(c(O)c2C1)C(=O)c1ccccc1C3=O | 1.6 µM | 2.6 µM | 2.1 µM | 3.1 µM | 6 µM | 4 µM |  | 
1.5 µM | 2.3 µM | 2.3 µM | 2.4 µM |  |  |  |  |  |  |  | O=C1c2ccccc2C(=O)c2c(O)c3c(c(O)c21)CC(C(=O)N[C@H]1CCNC1)C3 | 1.5 µM | 5.1 µM | 1.8 µM | 1.9 µM | 4.8 µM | 4.2 µM |  | 
 |  |  |  | inactive | Active |  |  |  |  |  | Cc1oc2c(O)c3c(c(O)c2c1C(=O)N1CC[C@H](N)C1)C(=O)c1ccccc1C3=O |  |  |  |  |  |  |  | 
24.3 µM | 18.1 µM | > 50 µM | > 50 µM |  |  | ~1.7 mg/mL (≈ 4.18 mM) |  |  |  |  | CN1CCN(C(=O)C2Cc3c(O)c4c(c(O)c3C2)C(=O)c2ccccc2C4=O)CC1 | 35.2 µM | 35 µM | 36.2 µM | 10.1 µM | > 50 µM | > 50 µM |  | 
1.6 µM | 10.1 µM | 2.3 µM | 2.1 µM |  |  |  |  |  |  |  | O=C1c2ccccc2C(=O)c2c(O)c3c(c(O)c21)CC(C(=O)N[C@@H]1CCNC1)C3 | 1.6 µM | 5.8 µM | 2.3 µM | 2.2 µM | 9.2 µM | 4.2 µM |  | 
2 µM | 3.8 µM | 2.8 µM | 2.8 µM |  |  |  | 0.31 10^6/M |  |  |  | N[C@@H]1CN(C(=O)C2Cc3c(O)c4c(c(O)c3C2)C(=O)c2ccccc2C4=O)C[C@H]1N | 1.7 µM | 3.9 µM | 2.6 µM | 2.3 µM | 35 µM | 23 µM |  | 3.2 µM
1.3 µM | 8.8 µM | 1.2 µM | 1.3 µM |  |  | 46 mg/mL (≈ 117 mM) |  |  |  |  | O=C1c2ccccc2C(=O)c2c(O)c3c(c(O)c21)CC(C(=O)N1CCNCC1)C3 | 1.4 µM | 5 µM | 2.1 µM | 1.7 µM | 2.2 µM | 4 µM |  | 
